Data on 2 compounds can be found in patent US20070161542A1, “Ptb1b photoprobes” (priority 2003, published 2007).

For orientation: IC50 means the midpoint of a concentration-inhibition curve. The term Ki denotes a dissociation constant, usually derived from enzyme kinetics or from competition with a known ligand. Lower therefore signals higher affinity.

Holding throughout (type): biochemical
For one data set, the target named is T1, Flag-PTP1B(1-320) (Homo sapiens, UniProt P18031).
T1 construct: Flag-PTP1B (residues 1-320 as a flag fusion); made in house
T1 sequence (P18031 1-320): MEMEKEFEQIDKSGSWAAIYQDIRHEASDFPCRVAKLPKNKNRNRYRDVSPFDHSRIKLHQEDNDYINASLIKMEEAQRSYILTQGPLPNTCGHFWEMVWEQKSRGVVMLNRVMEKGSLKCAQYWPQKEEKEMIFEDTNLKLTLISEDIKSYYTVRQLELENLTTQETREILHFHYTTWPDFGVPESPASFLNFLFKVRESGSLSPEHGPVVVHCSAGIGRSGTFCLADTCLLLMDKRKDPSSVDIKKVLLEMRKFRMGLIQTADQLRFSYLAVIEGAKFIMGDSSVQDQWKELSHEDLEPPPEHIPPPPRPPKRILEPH
The experiment in a line: Enzyme kinetic assay (DiFMUP), Flag-PTP1B. The following applies: for IC50 shift in the presence of 0.1% protein: 0.1% protein (HSA) vs none; for IC50: in the dark; for Ki: non-irradiated probes, competitive, reversible inhibitors of PTP1B. The source says: (§1) Protein tyrosine phosphatases used in this study were expressed and purified using published procedures, as follows: (a) Flag-PTP1B (residues 1-320 as a flag fusion), Huyer et al. (29). (b) Flag-TCPTP (residues 1-281 as a flag fusion), Asante-Appiah et al. (30). (c) Flag-CD45 (residues 556-1268 as a flag fusion), Wang et al. (31). (d) Mutant C215S-PTP1B (residues 1-320 as a gst fusion), Skorey et al. (28). (e) Infected SF9 cell lysate expressing full-length PTP1B (as a flag fusion), Cromlish et al. (25). For studies using H2O2-inactivated Flag-PTP1B, 100 μl of 2 μg/ml PTP1B was incubated with 100 μl of 1 mM or 20 mM H2O2 for 15 min to obtain 50% or 100% inactivated enzyme respectively as determined by the enzyme kinetic assay.
Kinetic measurements were performed using a Spectromax Gemini fluorescent plate reader (Molecular Devices, Sunnyvale, Calif.) in a 96-well plate format. Briefly, to 170 μl of BisTris buffer (50 mM BisTris, with and without 150 mM NaCl, 2 mM EDTA, 5 mM DMH, pH 6.3) containing 0-100 μM DiFMUP with or without 0.1% human serum albumin was added 10 μl of 10 or 50 μM photoprobe in water in a three-fold serial dilution. The reaction was initiated by the addition of 20 μl of 0.04 μg/ml Flag-PTP1B, Flag-TCPTP (0.04 μg/ml) or Flag-CD45 (0.01 μg/ml) in BisTris buffer containing 20% glycerol and 0.01% Triton X-100. The conversion of DiFMUP to DiFMU was monitored continuously for 5 min with excitation at 360 nm and emission at 450 nm (cutoff filter at 435 nm). IC50 values were calculated by nonlinear regression fit of the initial rates versus inhibitor concentration obtained using 10 μM DiFMUP using the Softmax Pro software (version 3.11, Molecular Devices). Ki values were determined by non-linear regression fit of the initial rates versus substrate concentration at various inhibitor concentrations using the kinetic equation software from Grafit software (Erithacus Software).

The target in the next data set is T2, Flag-TCPTP (Homo sapiens, UniProt P17706).
T2 construct: Flag-TCPTP (residues 1-281 as a flag fusion); made in house
T2 sequence (P17706 1-281): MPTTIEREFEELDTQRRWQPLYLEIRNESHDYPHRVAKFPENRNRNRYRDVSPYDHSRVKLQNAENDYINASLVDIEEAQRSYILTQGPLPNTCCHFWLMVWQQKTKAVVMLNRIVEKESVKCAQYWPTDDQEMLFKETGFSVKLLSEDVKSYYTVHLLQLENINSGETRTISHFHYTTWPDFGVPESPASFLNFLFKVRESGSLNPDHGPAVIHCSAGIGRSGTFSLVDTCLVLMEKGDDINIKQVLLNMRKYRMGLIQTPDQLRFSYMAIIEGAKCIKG
Kind of data set: Enzyme kinetic assay (DiFMUP), Flag-TCPTP. The following applies: in the dark, 10 μM DiFMUP.
Description: as §1
(§2) Kinetic measurements were performed using a Spectromax Gemini fluorescent plate reader (Molecular Devices, Sunnyvale, Calif.) in a 96-well plate format. […] The conversion of DiFMUP to DiFMU was monitored continuously for 5 min with excitation at 360 nm and emission at 450 nm (cutoff filter at 435 nm). […] Ki values were determined by non-linear regression fit of the initial rates versus substrate concentration at various inhibitor concentrations using the kinetic equation software from Grafit software (Erithacus Software).

The target of the next data set is T3, Flag-CD45 (Mus musculus, UniProt P06800).
T3 construct: Flag-CD45 (residues 556-1268 as a flag fusion); made in house
T3 sequence (P06800 581-1293 limits assumed): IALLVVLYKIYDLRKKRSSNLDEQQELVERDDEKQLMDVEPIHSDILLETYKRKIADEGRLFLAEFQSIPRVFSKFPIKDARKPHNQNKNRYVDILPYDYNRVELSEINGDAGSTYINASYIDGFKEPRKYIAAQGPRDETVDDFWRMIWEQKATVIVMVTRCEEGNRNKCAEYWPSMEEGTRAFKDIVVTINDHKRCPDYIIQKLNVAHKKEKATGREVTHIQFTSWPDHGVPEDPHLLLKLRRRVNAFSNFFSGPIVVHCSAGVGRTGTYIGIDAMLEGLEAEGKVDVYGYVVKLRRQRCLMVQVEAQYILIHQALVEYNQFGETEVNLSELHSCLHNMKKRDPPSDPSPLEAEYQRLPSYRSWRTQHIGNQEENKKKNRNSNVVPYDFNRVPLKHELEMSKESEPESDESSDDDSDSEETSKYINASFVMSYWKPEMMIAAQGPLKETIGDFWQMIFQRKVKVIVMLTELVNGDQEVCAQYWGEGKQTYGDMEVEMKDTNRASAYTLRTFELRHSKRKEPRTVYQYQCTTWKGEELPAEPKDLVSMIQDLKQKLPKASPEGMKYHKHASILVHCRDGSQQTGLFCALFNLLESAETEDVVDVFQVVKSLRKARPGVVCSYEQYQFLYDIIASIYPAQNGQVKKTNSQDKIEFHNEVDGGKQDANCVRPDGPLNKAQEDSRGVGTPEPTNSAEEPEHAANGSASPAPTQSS
Kind of data set: Enzyme kinetic assay (DiFMUP), Flag-CD45. The following applies: Flag-CD45, in the dark, 10 μM DiFMUP.
Description: as §1, §2

Setting [1] is: Flag-PTP1B(1-320), 10 μM DiFMUP.

Each structure is given as a SMILES string.

Regarding `NC(=O)[C@H](Cc1ccc(C(F)(F)P(=O)(O)O)c(Br)c1)NC(=O)[C@H](Cc1ccc(C(F)(F)P(=O)(O)O)c(Br)c1)NC(=O)c1cc(I)cc(C2(C(F)(F)F)N=N2)c1` [Example 1, Tetraamnionium 3-bromo-4-(difluoro(phosphonato)methyl)-N-(3-iodo-5-(3-(trifluoromethyl)-3H-diaziren-3-yl)benzoyl)-L-phenylalanyl-3-bromo-4-(difluoro(phosphonato)methyl)-L-phenylalaninamide], the “IC50 shift in the presence of 0.1% protein” value at Flag-PTP1B(1-320) came out at 7 fold. In addition, the half-inhibitory concentration (IC50) on Flag-PTP1B(1-320) (Fla-PTP1B + 0.1% HSA) was found to be 1.5 nM; on Flag-PTP1B(1-320) (setting [1]), 0.2 nM; against Flag-TCPTP, 0.1 nM; at Flag-CD45, 490 nM. The compound further displayed a Ki on Flag-PTP1B(1-320) of 0.1 nM.
With `NC(=O)[C@H](Cc1ccc(C(F)(F)P(=O)(O)O)cc1)NC(=O)[C@H](Cc1ccc(C(F)(F)P(=O)(O)O)cc1)NC(=O)c1cc(I)cc(C2(C(F)(F)F)N=N2)c1` [Example 9, 4-(Difluoro(phosphono)methyl)-N-(3-iodo-5-(3-(trifluoromethyl)-3H-diaziren-3-yl)benzoyl)-L-phenylalanyl-4-(difluoro(phosphono)methyl)-L-phenylalaninamide], the “IC50 shift in the presence of 0.1% protein” value on Flag-PTP1B(1-320) was “not significantly affected”. The IC50 on Flag-PTP1B(1-320) (Fla-PTP1B + 0.1% HSA) amounted to 14 nM; at Flag-PTP1B(1-320) (setting [1]), 11 nM; against Flag-TCPTP it was 6 nM; against Flag-CD45, 12600 nM. Further, on Flag-PTP1B(1-320), the Ki came to 5 nM.
